{"source": "patent US20230142705A1", "about": "“USE OF ANTI-AGING GLYCOPEPTIDES FOR INHIBITION OF IMMUNE REJECTION OF A GRAFT” (PROTOKINETIX INC., priority 2020, published 2023)", "key": {"[1]": {"system": "photoreceptor precursor cells (PPCs)", "assay": "Survival of AAGP-pretreated photoreceptor precursor cells after subretinal transplantation into rabbits with retinal degeneration", "assay_type": "in vivo, Rabbit (Oryctolagus cuniculus)", "details": "PPCs pre-treated in vitro 24 hours with 4 mg/mL; 6 months post subretinal transplantation; cyclosporine-A discontinued two weeks post transplantation; qualitative visual examination of flatmounts", "procedure": "The objective of this study was to determine the effect of 24-hour pretreatment with anti-aging glycoprotein (AAGP™) at 4 mg/mL on the long-term (6 months) survival and functional activity of photoreceptor precursor cells (PPCs) following their subretinal transplantation into the eye of rabbits with retinal degeneration.\nPPCs were generated in vitro from pluripotent human embryonic stem cells (hESCs) and incubated for 24 hours in media alone (control group) or media containing 4 mg/mL AAGP™ Following incubation, treated and untreated PPCs were labeled and injected into the subretinal space of the eye of immunosuppressed rabbits with induced retinal degeneration (4-5 rabbits/group). Animals were euthanized 6 month later, retinas were collected, and cell survival was determined in excised retinal flatmounts by imaging with confocal laser scanning system. The functional activity of transplanted cells was assessed by immunostaining for synaptic (Ribeye and Bassoon) and photoreceptor markers (Arrestin and Blue Opsin).\nRetinal degeneration was induced on Day 1 of the study. […]"}, "CD4+ T cells": {"system": "CD4+ T cells", "assay": "Immunohistochemistry to detect CD4+ T cells in conjunctival epithelium of dry eye disease-induced mice", "assay_type": "in vivo, mouse", "details": "bilateral topical administration of 5%; for CD4+ T cells infiltration into the conjunctival epithelium: DS-induced mice, result in words", "procedure": "Enucleated mouse eyes with intact conjunctiva were suspended in optimal cutting temperature (OCT) compound and flash frozen in liquid nitrogen. Immunohistochemistry was performed on six-micrometer frozen sections to detect and count the number of cells in conjunctival epithelium that stained positively for CD4 (clone H129.9, 10 μg/mL; BD Biosciences® cat #553647), a biotinylated secondary antibody (BD Pharmingen® cat #559286), and NovaRED® peroxidase (Vector Laboratories® cat #SK-4800). Secondary antibody alone and anti-rat isotype (clone A110-2; BD Biosciences® cat #553992) controls were also examined. Positively stained cells were counted in the GC-rich area of the conjunctiva using image analysis software (Nikon NIS Elements® software) using a 10×objective. T-cell detection and quantification was performed on Arms 1, 2, 4, and 5 only. CD4+ T cells infiltration into the conjunctival epithelium is a primary clinical indicator of dry eye disease (DED), which is used here as a proxy to study immune cell infiltration into diseased tissue suffering from […]."}, "[2]": {"details": "DS5 mice, conjunctival epithelium"}}, "data": [{"smiles": "C[C@H](NC(=O)[C@H](C)NC(=O)[C@@H](N)CCCCNC(=O)C(F)(F)C1(O)O[C@H](CO)[C@H](O)[C@H](O)[C@H]1O)C(=O)O.Cl", "note": "(stereo partly drawn) [AAGP™]", "values": [{"measurement": "cell survival of transplanted PPCs", "setting": "[1]", "value": "substantial increase"}, {"measurement": "T-Cell Density, 25% Percentile", "setting": "CD4+ T cells; [2]", "value": 0.3767}, {"measurement": "T-Cell Density, 75% Percentile", "setting": "CD4+ T cells; [2]", "value": 0.7663}, {"measurement": "T-Cell Density, Maximum", "setting": "CD4+ T cells; [2]", "value": 1.152}, {"measurement": "T-Cell Density, Mean", "setting": "CD4+ T cells; [2]", "value": 0.5644}, {"measurement": "T-Cell Density, Median", "setting": "CD4+ T cells; [2]", "value": 0.4907}, {"measurement": "T-Cell Density, Minimum", "setting": "CD4+ T cells; [2]", "value": 0.2307}, {"measurement": "CD4+ T cells infiltration into the conjunctival epithelium", "setting": "CD4+ T cells", "value": "suppresses T-cell response"}, {"measurement": "CD4+ T cells infiltration into the conjunctival epithelium", "setting": "CD4+ T cells; listed as PKX-001", "value": "significantly reduced"}]}]}
